The molecules below were run against human PDE1B enzyme (Homo sapiens (Human), UniProt Q01064) (assay: IMAP TR-FRET PDE1B enzymatic assay). Conditions: negative log of half-maximal molar inhibitory concentration; 200 nM FAM-cAMP; values given as bins.
Assay type: biochemical
Procedure, shortened: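 Full-length GST-tagged human PDE1B (250 pg/well) in IMAP BSA buffer with 10 U/ml calmodulin and 2.5 mM CaCl2; compound pre-incubated 5 min at room temperature, then 200 nM (final) FAM-cAMP for 30 min. IMAP binding reagent/Tb added, 1 h; TR-FRET 520/490 ratio read. IC50 from sigmoidal dose-response fit.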
In the case of `Cc1oc2ncnc(NC3(C)CC3)c2c1C(=O)NC(C)c1ccc(F)cn1` (stereo not drawn) [Example 51, N-[1-(5-Fluoropyridin-2-yl)ethyl]-6-methyl-4-[(1-methylcyclopropyl)amino]furo[2,3-d]pyrimidine-5-carboxamide], the “PDE1b (pIC50)” value is reported as >8. `COc1cccc(C2CCN(C(=O)c3c(C)oc4ncnc(NC5(C)CC5)c34)CC2)n1` [Example 422, 5-[4-(6-Methoxypyridin-2-yl)piperidine-1-carbonyl]-6-methyl-N-(1-methylcyclopropyl)furo[2,3-d]pyrimidin-4-amine] was tested, and the “PDE1b (pIC50)” value was >8. With `CCOc1ncnc2c1CCN(C(=O)c1c(C)oc3ncnc(NC4(C)CC4)c13)C2` [Example 25, 5-{4-Ethoxy-5H,6H,7H,8H-pyrido[3,4-d]pyrimidine-7-carbonyl}-6-methyl-N-(1-methylcyclopropyl)furo[2,3-d]pyrimidin-4-amine] the “PDE1b (pIC50)” value was >8. For `Cc1oc2ncnc(NC3(C)CC3)c2c1C(=O)N1CCC(c2ccn(C)n2)CC1` [Example 776, 6-Methyl-5-[4-(1-methyl-1H-pyrazol-3-yl)piperidine-1-carbonyl]-N-(1-methylcyclopropyl)furo[2,3-d]pyrimidin-4-amine], the “PDE1b (pIC50)” value was >8. `Cc1oc2ncnc(NC3(C)CC3)c2c1C(=O)N1CCC(c2ccc(C(F)F)cc2)C1` (stereo not drawn) [Example 131, 5-{3-[4-(Difluoromethyl)phenyl]pyrrolidine-1-carbonyl}-6-methyl-N-(1-methylcyclopropyl)furo[2,3-d]pyrimidin-4-amine] was tested, and the “PDE1b (pIC50)” value was >8. In the case of `Cc1oc2ncnc(NC3(C)CC3)c2c1C(=O)N1CCC(c2cccc(C(F)(F)F)c2)C1` (stereo not drawn) [Example 396, 6-Methyl-N-(1-methylcyclopropyl)-5-{3-[3-(trifluoromethyl)phenyl]pyrrolidine-1-carbonyl}furo[2,3-d]pyrimidin-4-amine], the “PDE1b (pIC50)” value is reported as >8. `Cc1ccc(CNC(=O)c2c(C)oc3ncnc(NC4(C)CC4)c23)cc1` [Example 196, 6-Methyl-4-[(1-methylcyclopropyl)amino]-N-[(4-methylphenyl)methyl]furo[2,3-d]pyrimidine-5-carboxamide] was tested, and the “PDE1b (pIC50)” value was >8. For `Cc1oc2ncnc(NC3(C)CC3)c2c1C(=O)NCc1cc(C2CC2)ncn1` [Example 686, N-[(6-Cyclopropylpyrimidin-4-yl)methyl]-6-methyl-4-[(1-methylcyclopropyl)amino]furo[2,3-d]pyrimidine-5-carboxamide], the “PDE1b (pIC50)” value was >8.

Same assay, conditions: negative log of half-maximal molar inhibitory concentration; 200 nM FAM-cAMP; values given as bins; read-out: PDE1b (pIC50) (converted)
For `Cc1oc2ncnc(NC3(C)CC3)c2c1C(=O)N1CCc2nnc(Cl)cc2C1` [Example 288, 5-{3-Chloro-5H,6H,7H,8H-pyrido[4,3-c]pyridazine-6-carbonyl}-6-methyl-N-(1-methylcyclopropyl)furo[2,3-d]pyrimidin-4-amine], the IC50 was 100 to 1000 nM. Work on `Cc1oc2ncnc(NC3(C)CC3)c2c1C(=O)Nc1ccc(N2CCOCC2)cn1` [Example 46, 6-Methyl-4-[(1-methylcyclopropyl)amino]-N-[5-(morpholin-4-yl)pyridin-2-yl]furo[2,3-d]pyrimidine-5-carboxamide] yielded an IC50 of 100 to 1000 nM. `Cc1oc2ncnc(NC3(C)CC3)c2c1C(=O)NCc1nccn1C` [Example 715, 6-Methyl-N-[(1-methyl-1H-imidazol-2-yl)methyl]-4-[(1-methylcyclopropyl)amino]furo[2,3-d]pyrimidine-5-carboxamide] showed an IC50 of 10 to 100 nM. Work on `Cc1oc2ncnc(NC3(C)CC3)c2c1C(=O)N1CCn2nc(C#N)cc2C1` [Example 636, 5-{6-Methyl-4-[(1-methylcyclopropyl)amino]furo[2,3-d]pyrimidine-5-carbonyl}-4H,5H,6H,7H-pyrazolo[1,5-a]pyrazine-2-carbonitrile] yielded an IC50 of 100 to 1000 nM. `Cc1oc2ncnc(NC3(C)CC3)c2c1C(=O)N(C)Cc1cccnc1` [Example 215, N,6-Dimethyl-4-[(1-methylcyclopropyl)amino]-N-(pyridin-3-ylmethyl)furo[2,3-d]pyrimidine-5-carboxamide] was tested, and the IC50 was 100 to 1000 nM. For `Cc1oc2ncnc(NC3(C)CC3)c2c1C(=O)N1CC=C(c2ncc(F)cn2)C1` [Example 774, 5-[3-(5-Fluoropyrimidin-2-yl)-2,5-dihydro-1H-pyrrole-1-carbonyl]-6-methyl-N-(1-methylcyclopropyl)furo[2,3-d]pyrimidin-4-amine], the IC50 was 10 to 100 nM. `Cc1oc2ncnc(NC3(C)CC3)c2c1C(=O)Nc1ccc2c(cnn2C)c1` [Example 262, 6-Methyl-N-(1-methyl-1H-indazol-5-yl)-4-[(1-methylcyclopropyl)amino]furo[2,3-d]pyrimidine-5-carboxamide] showed an IC50 of 10 to 100 nM. `Cc1oc2ncnc(NC3(C)CC3)c2c1C(=O)N1Cc2cnc(-c3ccc(F)cc3)nc2C1` [Example 37, 5-[2-(4-Fluorophenyl)-5H,6H,7H-pyrrolo[3,4-d]pyrimidine-6-carbonyl]-6-methyl-N-(1-methylcyclopropyl)furo[2,3-d]pyrimidin-4-amine] showed an IC50 of 100 to 1000 nM. For `COCCOc1ncnc2c1CCN(C(=O)c1c(C)oc3ncnc(NC4(C)CC4)c13)C2` [Example 809, 5-[4-(2-Methoxyethoxy)-5H,6H,7H,8H-pyrido[3,4-d]pyrimidine-7-carbonyl]-6-methyl-N-(1-methylcyclopropyl)furo[2,3-d]pyrimidin-4-amine], the IC50 was 10 to 100 nM. Molecule `Cc1coc(NC(=O)c2c(C)oc3ncnc(NC4(C)CC4)c23)n1` [Example 451, 6-Methyl-N-(4-methyl-1,3-oxazol-2-yl)-4-[(1-methylcyclopropyl)amino]furo[2,3-d]pyrimidine-5-carboxamide] has an IC50 of 10 to 100 nM. Molecule `Cc1oc2ncnc(NC3(C)CC3)c2c1C(=O)N1CCC2(C1)OCc1ccccc12` (stereo not drawn) [Example 380, 6-Methyl-N-(1-methylcyclopropyl)-5-(f{3H-spiro[2-benzofuran-1,3′-pyrrolidine]-1′-yl}carbonyl)furo[2,3-d]pyrimidin-4-amine] has an IC50 of 10 to 100 nM. `Cc1oc2ncnc(NC3(C)CC3)c2c1C(=O)NCc1nc2cc(F)ccc2n1C` [Example 733, N-[(5-Fluoro-1-methyl-1H-1,3-benzodiazol-2-yl)methyl]-6-methyl-4-[(1-methylcyclopropyl)amino]furo[2,3-d]pyrimidine-5-carboxamide] showed an IC50 of 10 to 100 nM. In the case of `COc1cnc(N2CCN(C(=O)c3c(C)oc4ncnc(NC5(C)CC5)c34)CC2)nc1` [Example 327, 5-[4-(5-Methoxypyrimidin-2-yl)piperazine-1-carbonyl]-6-methyl-N-(1-methylcyclopropyl)furo[2,3-d]pyrimidin-4-amine], the IC50 is reported as 10 to 100 nM. Molecule `Cc1oc2ncnc(NC3(C)CC3)c2c1C(=O)NCc1cocn1` [Example 100, 6-Methyl-4-[(1-methylcyclopropyl)amino]-N-(1,3-oxazol-4-ylmethyl)furo[2,3-d]pyrimidine-5-carboxamide] has an IC50 of 10 to 100 nM. For `Cc1oc2ncnc(NC3(C)CC3)c2c1C(=O)NCc1cc([N+](=O)[O-])ccc1F` [Example 614, N-[(2-Fluoro-5-nitrophenyl)methyl]-6-methyl-4-[(1-methylcyclopropyl)amino]furo[2,3-d]pyrimidine-5-carboxamide], the IC50 was < 10 nM. For `COc1ccc2c(n1)CCN(C(=O)c1c(C)oc3ncnc(NC4(C)CC4)c13)C2` [Example 635, 5-(2-Methoxy-5,6,7,8-tetrahydro-1,6-naphthyridine-6-carbonyl)-6-methyl-N-(1-methylcyclopropyl)furo[2,3-d]pyrimidin-4-amine], the IC50 was 10 to 100 nM. `Cc1oc2ncnc(NC3(C)CC3)c2c1C(=O)N1CCc2c(ncnc2OC2CC2)C1` [Example 811, 5-{4-Cyclopropoxy-5H,6H,7H,8H-pyrido[3,4-d]pyrimidine-7-carbonyl}-6-methyl-N-(1-methylcyclopropyl)furo[2,3-d]pyrimidin-4-amine] was tested, and the IC50 was 10 to 100 nM. For `Cc1oc2ncnc(NC3(C)CC3)c2c1C(=O)N[C@H]1C[C@H](F)C1` [Example 126, 6-Methyl-4-[(1-methylcyclopropyl)amino]-N-[(1R,3R)-3-fluorocyclobutyl]furo[2,3-d]pyrimidine-5-carboxamide], the IC50 was 10 to 100 nM. For `Cc1oc2ncnc(NC3(C)CC3)c2c1C(=O)N1CCc2c(ncnc2OCF)C1` [Example 17, 5-[4-(fluoromethoxy)-5H,6H,7H,8H-pyrido[3,4-d]pyrimidine-7-carbonyl]-6-methyl-N-(1-methylcyclopropyl)furo[2,3-d]pyrimidin-4-amine], the IC50 was 10 to 100 nM. With `Cc1cc(NC(=O)c2c(C)oc3ncnc(NC4(C)CC4)c23)no1` [Example 142, 6-Methyl-N-(5-methyl-1,2-oxazol-3-yl)-4-[(1-methylcyclopropyl)amino]furo[2,3-d]pyrimidine-5-carboxamide] the IC50 was 10 to 100 nM. Molecule `Cc1ncncc1CNC(=O)c1c(C)oc2ncnc(NC3(C)CC3)c12` [Example 659, 6-Methyl-4-[(1-methylcyclopropyl)amino]-N-[(4-methylpyrimidin-5-yl)methyl]furo[2,3-d]pyrimidine-5-carboxamide] has an IC50 of 10 to 100 nM. Work on `Cc1oc2ncnc(NC3(C)CC3)c2c1C(=O)N1CC(C#N)C2(C1)C(=O)Nc1ccccc12` (stereo not drawn) [Example 377, 1′-{6-Methyl-4-[(1-methylcyclopropyl)amino]furo[2,3-d]pyrimidine-5-carbonyl}-2-oxo-1,2-dihydrospiro[indole-3,3′-pyrrolidine]-4′-carbonitrile] yielded an IC50 of 10 to 100 nM. In the case of `Cc1oc2ncnc(NC3(C)CC3)c2c1C(=O)N1CCc2nc(Cl)ncc2C1` [Example 289, 5-{2-Chloro-5H,6H,7H,8H-pyrido[4,3-d]pyrimidine-6-carbonyl}-6-methyl-N-(1-methylcyclopropyl)furo[2,3-d]pyrimidin-4-amine], the IC50 is reported as 10 to 100 nM. `Cc1oc2ncnc(NC3(C)CC3)c2c1C(=O)N1CCN(c2ccc(S(C)(=O)=O)cc2F)CC1C` (stereo not drawn) [Example 522, 5-[4-(2-Fluoro-4-methanesulfonylphenyl)-2-methylpiperazine-1-carbonyl]-6-methyl-N-(1-methylcyclopropyl)furo[2,3-d]pyrimidin-4-amine] was tested, and the IC50 was 10 to 100 nM. Work on `Cc1cnn(C(=O)c2c(C)oc3ncnc(NC4(C)CC4)c23)c1` [Example 408, 6-Methyl-5-(4-methyl-1H-pyrazole-1-carbonyl)-N-(1-methylcyclopropyl)furo[2,3-d]pyrimidin-4-amine] yielded an IC50 of 100 to 1000 nM.

— patent US20250145633A1, “SUBSTITUTED FURANOPYRIMIDINE COMPOUNDS AS PDE1 INHIBITORS” (Dart NeuroScience, LLC, priority 2017, published 2025)
